Laboratory results: patent US7078552B2, “Combretastatin A-1 phosphate and combretastatin B-1 phosphate prodrugs” (Arizona Board of Regents, priority 2000, dated 2006)
Values after ≈ are worked out from the molar mass of the structure shown. Read-outs that look alike come from different tables or passages of the source.

How the values were obtained:
[1] = system: P388 lymphocytic leukemia cell line; conditions: literature (Pettit et al, 1987, 1989); cited from earlier work
DU-I45 = test: Human cancer cell line growth inhibition, Prostate DU-I45; format: cell-based; conditions: for GI50: Homo sapiens
[2] = system: tubulin (microtubule assembly); conditions: literature (Pettit et al, 1987, 1989); read-out: IC50 inhibiting microtubule assembly in vitro; cited from earlier work
P388 leukemia = conditions: early murine P388 leukemia in vivo experiments, compared with combretastatin A-4; cited from earlier work
[3] = system: P388 lymphocytic leukemia cell line; test: Murine P388 lymphocytic leukemia in vitro cell growth inhibition; format: cell-based
tubulin = conditions: at equal concentrations; cited from earlier work
BXPC-3 = test: Human cancer cell line growth inhibition, Pancreas-a BXPC-3; format: cell-based; conditions: for GI50: Homo sapiens
NCl-H460 = test: Human cancer cell line growth inhibition, Lung-NSC NCl-H460; format: cell-based; conditions: for GI50: Homo sapiens
KM20L2 = test: Human cancer cell line growth inhibition, Colon KM20L2; format: cell-based; conditions: for GI50: Homo sapiens, KM-20L2
SF-295 = test: Human cancer cell line growth inhibition, CNS SF-295; format: cell-based; conditions: for GI50: Homo sapiens
OVCAR-3 = test: Human cancer cell line growth inhibition, Ovarian OVCAR-3; format: cell-based; conditions: for GI50: Homo sapiens
physchem = conditions: water
[4] = 1 mL distilled water at 25° C., Table I
[5] = system: P388 and human tumor cell lines; test: Cytotoxicity versus the P388 and human tumor cell lines, comparative statements

Compound	Prostate DU-I45 GI50 (DU-I45) [µg/mL]	Leukemia P388 ED50 ([3]; P388 cell line) [µg/mL]	Pancreas-a BXPC-3 GI50 (BXPC-3) [µg/mL]	Lung-NSC NCl-H460 GI50 (NCl-H460) [µg/mL]	Colon KM20L2 GI50 (KM20L2) [µg/mL]	CNS SF-295 GI50 (SF-295) [µg/mL]	Ovarian OVCAR-3 GI50 (OVCAR-3) [µg/mL]	further results
COc1ccc(/C=C\c2cc(OC)c(OC)c(OC)c2)c(O)c1O [Compound 1, Combretastatin A-1]	0.17	0.251	4.4	0.74	–	–	–	ED50 against murine P388 lymphocytic leukemia in vitro system [1]: 0.99 µg/mL (≈ 2980 nM); IC50 [2]: 2000 nM; antineoplastic results in vivo (P388 leukemia): more consistent antineoplastic results; inhibition of colchicine binding to tubulin (tubulin): ~99%
COc1ccc(CCc2cc(OC)c(OC)c(OC)c2)c(O)c1O [Compound 2, combretastatin B-1]	–	–	–	–	–	–	–	ED50 against murine P388 lymphocytic leukemia in vitro system [1]: 1.7 µg/mL (≈ 5080 nM); IC50 [2]: 3000 nM; Leukemia P388 ED50 [3]: 1.7 µg/mL
COc1ccc(/C=C\c2cc(OC)c(OC)c(OC)c2)cc1O [Compound 3a, combretastatin A-4, reference compound]	–	[…]	–	–	–	–	–	ED50 against murine P388 lymphocytic leukemia in vitro system [1]: ~0.0009 µg/mL (≈ 2.84 nM); GI50 (KM20L2): 0.061 µg/mL (≈ 193 nM); GI50 (DU-I45): 0.0008 µg/mL (≈ 2.53 nM); IC50 [2]: […]; GI50 (SF-295): < 0.001 µg/mL; GI50 (BXPC-3): 0.39 µg/mL (≈ 1230 nM); GI50 (NCl-H460): 0.0006 µg/mL (≈ 1.9 nM); GI50 (OVCAR-3): < 0.001 µg/mL
COc1cc(/C=C\c2ccc(OC)c(OP(=O)(O)O)c2OP(=O)(O)O)cc(OC)c1OC [Compound 4, Sodium Combretastatin A-1 2′,3′-O-diphosphate]	–	<0.0100	–	–	–	–	–	GI50 (KM20L2): 0.53 µg/mL; GI50 (DU-I45): 0.034 µg/mL; GI50 (SF-295): 0.036 µg/mL; solubility (physchem; 25 °C): 120 mg/mL; solubility (physchem): 120 mg/mL; GI50 (BXPC-3): 1.5 µg/mL; solubility ([4]; second part (column repeated)): 120 mg/mL; GI50 (NCl-H460): 0.038 µg/mL; GI50 (OVCAR-3): 0.024 µg/mL
COc1cc(CCc2ccc(OC)c(OP(=O)(O)O)c2OP(=O)(O)O)cc(OC)c1OC [Compound 5, Sodium Combretastatin B-1 2′,3′-O-Diphosphate]	–	0.335	–	–	–	–	–	GI50 (KM20L2): > 10 µg/mL; GI50 (DU-I45): 2.7 µg/mL; GI50 (SF-295): 2.3 µg/mL; solubility (physchem; 25 °C): > 50 mg/mL; GI50 (BXPC-3): > 10 µg/mL; cytotoxicity / antineoplastic activity compared to prodrug 4 [5]: reduced antineoplastic activity; GI50 (NCl-H460): 3.3 µg/mL; GI50 (OVCAR-3): 2 µg/mL
COc1cc(/C=C\c2ccc(OC)c(OP(=O)([O-])[O-])c2OP(=O)([O-])[O-])cc(OC)c1OC.[Li+].[Li+].[Li+].[Li+] [Compound 11a, Lithium Combretastatin A-1 2′,3′-O-diphosphate]	0.031	<0.0100	0.33	0.040	0.37	0.042	0.028	–
COc1cc(/C=C\c2ccc(OC)c(OP(=O)([O-])[O-])c2OP(=O)([O-])[O-])cc(OC)c1OC.[K+].[K+].[K+].[K+] [Compound 11b, Potassium Combretastatin A-1 2′,3′-O-diphosphate]	0.024	0.0170	0.38	0.036	0.30	0.035	0.023	solubility ([4]; first part): >90 mg/mL; solubility ([4]; second part (column repeated)): >90 mg/mL
COc1cc(/C=C\c2ccc(OC)c(OP(=O)([O-])[O-])c2OP(=O)([O-])[O-])cc(OC)c1OC.[Cs+].[Cs+].[Cs+].[Cs+] [Compound 11c, Cesium Combretastatin A-1 2′,3′-O-diphosphate]	0.024	0.0365	0.31	0.040	0.28	0.038	0.024	–
COc1cc(/C=C\c2ccc(OC)c(OP(=O)([O-])[O-])c2OP(=O)([O-])[O-])cc(OC)c1OC.[Mn+2].[Mn+2] [Compound 11f, Manganese Combretastatin A-1 2′, 3′-O-diphosphate]	2.4	0.715	4.7	0.19	6.1	0.28	0.044	–
COc1cc(/C=C\c2ccc(OC)c(OP(=O)([O-])[O-])c2OP(=O)([O-])[O-])cc(OC)c1OC.[Zn+2].[Zn+2] [Compound 11g, Dizinc Combretastatin A-1 2′,3′-O-diphosphate]	0.025	0.0394	0.36	0.032	0.32	0.033	0.027	–
Calcium Combretastatin A-1 2′,3′-O-diphosphate [Compound 11e]	0.024	0.0102	0.28	0.037	0.34	0.041	0.024	–
Magnesium Combretastatin A-1 2′,3′-O-diphosphate [Compound 11d]	0.032	0.0245	0.44	0.039	0.47	0.039	0.031	–
Morpholine Combretastatin A-1 2′,3′-O-diphosphate [Compound 11h]	0.039	0.002	0.35	0.046	0.26	0.042	0.043	–
Nicotinamide Combretastatin A-1 2′,3′-O-diphosphate [Compound 11j]	0.046	0.005	0.42	0.15	0.53	0.053	0.054	–
Papaverine Combretastatin A-1 2′,3′-O-diphosphate [Compound 11n]	0.054	0.05	0.38	0.27	0.33	0.063	0.052	–
Piperazine Combretastatin in A-1 2′,3′-O-diphosphate [Compound 11i]	0.036	0.002	0.35	0.037	0.20	0.039	0.046	–
Quinidine Combretastatin A-1 2′,3′-O-diphosphate [Compound 11l]	0.10	0.004	0.55	0.37	0.84	0.056	0.043	–
Quinine Combretastatin A-1 2′,3′-O-dephosphate [Compound 11k]	0.050	0.004	0.47	0.34	0.40	0.044	0.054	–
